In patent publication US5641800A, “1H-indole-1-functional sPLA2 inhibitors” (Eli Lilly and Company, priority 1995, dated 1997):

Columns and labels:
human secreted PLA2 = target: T1, human secreted PLA2 (Homo sapiens, UniProt P14555); assay: Chromogenic assay, inhibition of recombinant human secreted phospholipase A2; format: biochemical; details: recombinant human sPLA2, diheptanoyl thio-PC substrate, pH 7.5, 40° C., 30 minutes, 405 nm; ± mean deviation (3-4 tests)
T1 sequence (P14555 21-144): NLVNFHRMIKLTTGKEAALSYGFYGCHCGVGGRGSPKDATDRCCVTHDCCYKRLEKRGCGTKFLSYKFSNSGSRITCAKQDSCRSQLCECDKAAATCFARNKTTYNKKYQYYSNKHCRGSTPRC
From the text: The following chromogenic assay procedure was used to identify and evaluate inhibitors of recombinant human secreted phospholipase A2. The assay described herein has been adapted for high volume screening using 96 well microtiter plates. A general description of this assay method is found in the article, "Analysis of Human Synovial Fluid Phospholipase A2 on Short Chain Phosphatidylcholine-Mixed Micelles: Development of a Spectrophotometric Assay Suitable for a Microtiterplate Reader", by Laure J. Reynolds, Lori L. Hughes, and Edward A Dennis, Analytical Biochemistry,204, pp. 190-197, 1992 (the disclosure of which is incorporated herein by reference):
Bovine Serum Albumin (fatty acid free) (1 g/L) (Sigma A-7030, product of Sigma Chemical Co. St. Louis Mo., USA)
racemic 1,2-bis(heptanoylthio)-1,2-dideoxy-sn-glycero-3-phosphorylcholine
A measured volume of racemic dipheptanoyl thio PC supplied in chloroform at a concentration of 100 mg/ml is taken to dryness and redissolved in 10 millimolar TRITON X 100™ nonionic detergent aqueous solution. Reaction Buff added to the solution, then DTNB to give the Reaction Mixture.
The reaction mixture thus obtained contains […] diheptanoly thio-PC substrate, 0.29 mm Triton X-100™ detergent, and 0.12 mm DTMB in a buffered aqueous solution at pH 7.5.
1. Add 0.2 ml reaction mixture to all wells;
2. Add 10 ul test compound (or solvent blank) to appropriate wells, mix 20 seconds;
3. Add 50 nanograms of sPLA2 (10 microliters) to appropriate wells;
4. Incubate plate at 40° C. for 30 minutes;
5. Read absorbance of wells at 405 nanometers with an automatic plate reader.
All compounds were tested in triplicate. Typically, compounds were tested am a final concentration of 5 ug/ml. […] Lack of color development at 405 nanometers evidenced inhibition. Compounds initially found to be active were reassayed to confirm their activity and, if sufficiently active, IC50 values were determined. […] In all cases, % inhibition measured at 405 nanometers generated by enzyme reactions containing inhibitors relative to the uninhibited control reactions was determined. Each sample was titrated in triplicate and result values were averaged for plotting and calculation of IC50 values. IC50 were determined by plotting log concentration versus inhibition values in the range from 10-90% inhibition.

[1] = target: T2, Human Secreted Phospholipase A2 (Homo sapiens, UniProt P14555); assay: Human secreted phospholipase A2 inhibition tests on guinea pig lung tissue (pleural strip contraction); format: tissue-based; details: guinea pig lung pleural strips, sPLA2-induced contraction, 37° C., compound added 30 min. prior; Schild slope 1, apparent KB = dissociation constant of the inhibitor; read-out: Tissue test secreted PLA2, Apparent KB
T2 sequence (P14555 21-144): T1 sequence (P14555 21-144)
From the text: Male Hartley strain guinea pigs (500-700 g) were killed by cervical dislocation and their heart and lungs removed intact and placed in aerated (95% 02 :5% CO2) Krebs buffer. Dorsal pleural strips (4×1×25 mm) were dissected from intact parenchymal segments (8×4×25 mm) cut parallel to the outer edge of the lower lung lobes. Two adjacent pleural strips, obtained from a single lobe and representing a single tissue sample, were tied at either end and independently attached to a metal support rod. One rod was attached to a Grass force-displacement transducer (Model FTO3C, product of Grass Medical Instruments Co., Quincy, Mass., USA). […] All tissues were placed in 10 ml jacketed tissue baths maintained at 37° C. The tissue baths were continuously aerated and contained a modified Krebs solution of the following composition (millimolar) NaCl, 118.2; KCl, 4.6; CaCl2.2H2 O, 2.5; MgSO4.7H2 O, 1.2; NaHCO3, 24.8; KH2 PO4, 1.0; and dextrose, 10.0. Pleural strips from the opposite lobes of the lung were used for paired experiments.
Initially tissues were challenged 3 times with KCl (40 mM) to test tissue viability and to obtain a consistent response. After recording the maximal response to KCl, the Elssues were washed and allowed to return to baseline before the next challenge. Cumulative concentration-response curves were obtained from pleural strips by increasing the agonist concentration (sPLA2) in the tissue bath by half-log10 increments while the previous concentration remained in contact with the tissues (Ref.1, supra.) Agonist concentration was increased after reaching the plateau of the contraction elicited by the preceding concentration. One concentration-response curve was obtained from each tissue. To minimize variability between tissues obtained from different animals, contractile responses were expressed as a percentage of the maximal response obtained with the final KCl challenge. […]
Data from different experiments were pooled and presented as a percentage of the maximal KCl responses (mean±S.E.). To estimate the drug induced rightward shifts in the concentration response curves, the curves were analyzed simultaneously using statistical nonlinear modeling methods similar to those described by Waud (1976), Equation 26, p. […] The Schild slope was determined to be 1, using statistical nonlinear modeling methods similar to those described by Waud 1976), Equation 27, p. […]
To estimate the drug-induced suppression of the maximal responses, sPLA2 responses (10 ug/ml) were determined in the absence and presence of drug, and percent suppression was calculated for each pair of tissues. […]

Row | Compound | IC50 (human secreted PLA2) [nM] | Kb [1] [nM]
1 | Cc1c(Cc2ccccc2)c2cccc(OCC(=O)O)c2n1CC(N)=O [Example 1, [[1-(2-Amino-2-oxoethyl)-2-methyl-3-(phenylmethyl)-1H-indol-7-yl]oxy]acetic acid] | 13 ± 2 | 390 ± 120
2 | CCc1c(Cc2ccccc2)c2ccc(OCCCC(=O)O)cc2n1CC(N)=O [Example 2, 4-[[1-(2-amino-2-oxoethyl)-2-ethyl-3-(phenylmethyl)-1H-indol-6-yl]oxy]butyric acid] | 33 ± 3 | 1470 ± 340
3 | CCc1c(Cc2ccccc2)c2ccc(OCCCP(=O)(O)O)cc2n1CC(N)=O [Example 3, [3-[[1-(2-amino-2-oxoethyl)-2-ethyl-3-(phenylmethyl)-1H-indol-6-yl]oxy]propyl]phosphonic acid] | 35 ± 8 | 415 ± 51
4 | Cc1c(Cc2ccccc2)c2cccc(OCC(=O)O)c2n1CC(=O)NN [Example 4, [[1-(2-hydrazino-2-oxoethyl)-2-methyl-3-(phenylmethyl)-1H-indol-7-yl]oxy]acetic acid] | 200 ± 90 | 1670 ± 280
